SMILES strings stand for the structures. Active and inactive are the calls of the source.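 How the source made its calls: active means fitted curve reaches a 40% rise in fluorescent cells at or below the top valid dose; inactive means opposite-direction effect, or the rest.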

Results on 30 compounds are retold here after PubChem BioAssay AID743396 (Broad Institute, 2014).

A short description of the first assay: compound fluorescence in GFP channel, mTEFS cells – imaging, mTEFS fibroblasts, cherry-pick, artefact control for X-chromosome reactivation project, dose response (AID 743396).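 Further: raw share of Hoechst-counted cells scored GFP positive without control normalization.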 To be noted: mTEFS fibroblasts autofluorescence, GFP-channel imaging, 3 days; at 19.5 µM (top of the series).
Take `C=CCn1c(O)c(C(C)=NCc2ccc3c(c2)OCO3)c(=O)[nH]c1=O`: the % fluorescent cells increase is 0.135% (inactive).

The same assay, now with this note: mTEFS fibroblasts autofluorescence, GFP-channel imaging, 3 days; at 19.5 µM (top of the series); cells pretreated with 5-aza-dC.
Consider `COc1ccccc1-c1ccc(/C=N/O)o1`, for which the % fluorescent cells increase was 0% (inactive).

Regarding `CC(=O)Nc1ccc(N2Cc3ccccc3C2)cc1`, the % fluorescent cells increase was 0.093% (inactive).

For the compound `CC(C)C(NC(=O)c1ccc(F)cc1)C(=O)NCC1CCCO1` (stereo not given), the % fluorescent cells increase was 0.01% (inactive).

For the compound `CCCCC(CCC(=O)Nc1ccn(-c2ccccc2)n1)C(=O)O` (stereo not given), the % fluorescent cells increase is -0.003% (inactive).

Take `CCOC(=O)c1ccccc1NC(=O)COC(=O)C1CCN(S(=O)(=O)c2ccccc2C(=O)OC)CC1`: the % fluorescent cells increase was 0% (inactive).

For the compound `COC(=O)c1sc(-c2ccc(C(C)(C)C)cc2)cc1NC(=O)c1ccccc1C(=O)O`, the % fluorescent cells increase was 0.032% (inactive).

For the compound `O=C(CCC(=O)Nc1cccnc1)Nc1cccnc1`, the % fluorescent cells increase is 0.042% (inactive).

For the compound `CC(C)(C)NC(=O)C(c1c[nH]c2ccccc12)N(C(=O)Cn1nnc(-c2ccc(Cl)cc2)n1)c1ccccc1F` (stereo not given), the % fluorescent cells increase is 0.176% (inactive).

Regarding `COc1ccc2c(c1)c(/C=N/Nc1nc3ccccc3[nH]1)c(C)n2C`, the % fluorescent cells increase was 3.71% (inactive).

With `C[C@@H]1CN([C@@H](C)CO)C(=O)c2cc(NS(=O)(=O)c3ccccc3)ccc2O[C@@H](C)CCCCO[C@@H]1CN(C)Cc1ccc2c(c1)OCO2`, the % fluorescent cells increase was 0% (inactive).

For the compound `O=c1c(Cl)c(Cl)cnn1Cc1nnc(-c2ccccc2Br)o1`, the % fluorescent cells increase is -0.006% (inactive).

Regarding `Nc1ccccc1C#CC(=O)c1ccccc1`, the % fluorescent cells increase is 0% (inactive).

Regarding `Cc1ccc(N2C(=O)C3C4C=CC(CNC(=S)N5CCN(c6ccccc6)CC5)(O4)C3C2=O)cc1` (stereo not given), the % fluorescent cells increase was 1.71% (inactive).

On to `CC(=NNc1ccc2ccccc2n1)c1ccccn1`, for which the % fluorescent cells increase is 15.8% (inactive).

Consider `Cc1ccc(-c2csc3nc4c5ccccc5c(NCCCN(C)C)nn4c(=O)c23)cc1`, for which the % fluorescent cells increase was 0% (inactive).

Consider `CN(CC(=O)Nc1ccc(Cl)c(Cl)c1)CC(=O)Nc1ccc2c(c1)OCO2`, for which the % fluorescent cells increase was 0% (inactive).

On to `COc1cccc(CNC(=O)C(Cc2ccccc2)n2cccc2)c1` (stereo not given), for which the % fluorescent cells increase is 0% (inactive).

Regarding `Cc1ccc(N(C)C(=O)C2CCN(S(=O)(=O)c3ccc4c(c3)oc(=O)n4C)CC2)cc1`, the % fluorescent cells increase was -0.007% (inactive).

Take `CN(C)C(=O)CN1CCN(Cc2nc(CC3CC3)no2)CC1`: the % fluorescent cells increase was 0.246% (inactive).

In the case of `Cc1ccc(-c2ccc3c(c2)O[C@@H](CN(C)Cc2ccncc2)[C@@H](C)CN([C@@H](C)CO)S3(=O)=O)cc1`, the % fluorescent cells increase was 0.037% (inactive).

For `COc1ccc(-c2noc(-c3cccs3)n2)cc1OC`, the % fluorescent cells increase is 0.073% (inactive).

For `CCOC(=O)Cc1csc(NC(=O)Nc2ccc(F)cc2)n1`, the % fluorescent cells increase was 0% (inactive).

Consider `O=[N+]([O-])c1ccc(Sc2nnnn2-c2ccccc2)nc1`, for which the % fluorescent cells increase was -0.007% (inactive).

On to `Nc1nc(C2CCOCC2)cs1`, for which the % fluorescent cells increase is 0.017% (inactive).

In the case of `COc1ccc(CN(C)C[C@H]2OCCCC[C@H](C)Oc3ccc(NC(=O)Nc4ccc(F)cc4)cc3C(=O)N([C@H](C)CO)C[C@H]2C)cc1`, the % fluorescent cells increase was 0.183% (inactive).

Take `Cc1ccc(/C=C/C(=O)N2CCN(S(=O)(=O)/C=C/c3ccccc3)CC2)o1`: the % fluorescent cells increase was 0.017% (inactive).

As to `COc1ccc2c3c(n(C)c2c1)[C@@H](CO)N(Cc1ccccc1OC)CC31CCN(C)CC1`, the % fluorescent cells increase is -0.158% (inactive).

The same assay, now with this note: mTEFS fibroblasts autofluorescence, GFP-channel imaging, 3 days; at 21 µM (top of the series); cells pretreated with 5-aza-dC.
As for `COc1ccc(S(=O)(=O)N(C)C[C@@H]2OCc3cn(nn3)CCCC(=O)N([C@@H](C)CO)C[C@@H]2C)cc1`, the % fluorescent cells increase is 0.036% (inactive).

With `Cc1noc(C)c1NC(=O)N(C)C[C@@H]1Oc2ccc(NC(=O)C3CC3)cc2CC(=O)N([C@@H](C)CO)C[C@@H]1C`, the % fluorescent cells increase was 0.068% (inactive).
